Laboratory results as given in patent US10435399B2, “HDAC6 inhibitory heterocyclic compound” (TAKEDA PHARMACEUTICAL COMPANY LIMITED, priority 2017, dated 2019).

Experiments:
[1] = test system: acetylated tubulin in brain (hippocampus); assay: Increase in acetylated tubulin in brain (hippocampus ELISA); assay type: in vivo, C57BL/6J mouse; settings: mouse hippocampus, oral 10 mg/kg, 4 h after administration, vs vehicle
Procedure: Increase in Acetylated Tubulin in Brain
A drug was suspended in 0.5% methyl cellulose to prepare a suspension for administration, having a concentration shown in Table 3. The suspension was orally administered into 8 to […] male C57BL/6J mouse, and after the passage of the time shown in Table 3, the brain was taken out, and hippocampus was obtained. The hippocampus was homogenized under RIPA extract (Wako) to which protease inhibitor (Thermo) and phosphatase inhibitor (Thermo) were added, and centrifuged in 15,000 g for 15 min to prepare a protein extract. The acetylated tubulin and total tubulin in the extract were detected by the following ELISA method. Tubulin antibody (Sigma) was immobilized on 96-well plate (Microlite2+, Thermo), and the plate was stored at 4° C. […] The plate was washed, HRP substrate was added thereto, and the luminescence was measured using a plate reader. The acetylated tubulin and total tubulin were quantified from logistics curve based on dilution series using the mouse hippocampus tissue extract, and the acetylated tubulin relative to total tubulin was calculated, and evaluated as an relative tubulin acetylation level. […] After F test for vehicle group and drug group, the significant difference between the two groups was analyzed by Student t-test or Welch test (indicated as * p<0.05, ** p<0.01). […]

bone-marrow cells = assay: Micronucleus test in rats (bone-marrow cells); assay type: in vivo, rats (Crl:CD(SD)); settings: rats, 1000 mg/kg and 2000 mg/kg once daily for 3 days
Procedure: Combination Assay of Micronucleus Test and Comet Assay in Rats […] Bone-marrow smear for micronucleus analysis was prepared as follows. Femur was cut at both ends, and washed with fetal bovine serum (FBS) in a centrifuging tube, and the obtained bone-marrow fluid was centrifuged for 5 min at room temperature. The supernatant was removed, and the cell sediment was suspended in the remaining small amount of the supernatant. A part of the suspension was dropped on a glass slide, and a cover glass was placed thereon to give a bone-marrow smear. The smear was dried well, and fixed with methanol for 5 min. The bone-marrow smear of negative control, that of treatment groups as well as the previously prepared bone-marrow smear of positive control group were encoded, and observed by the blind method. An acridine orange solution (40 μg/mL) was dropped (several drops) to the smear just before observation, and a cover glass was placed thereon. […] In addition, as an index of growth inhibitory effect on bone-marrow cell, total of 500 erythrocytes [immature erythrocytes+mature erythrocytes (ME)] per individual were observed, and immature erythrocyte rate (IE %) relative to the total number of erythrocytes was calculated.

[2] = test system: liver and glandular stomach cells; assay: Comet assay in rats (liver and glandular stomach); assay type: in vivo, rats (Crl:CD(SD)); settings: rats, 1000 mg/kg and 2000 mg/kg once daily for 3 days
Procedure: Combination Assay of Micronucleus Test and Comet Assay in Rats
The compound of Example 489 at doses of 1000 and 2000 mg/kg was orally administered to 8 to 9-week-old rats (Crl:CD(SD), five/group) once daily for 3 days, and micronucleus induction was evaluated in bone-marrow cells, and DNA damage was evaluated by DNA fragmentation of cell nucleus in the liver and glandular stomach.
Sample for comet assay was obtained from liver and glandular stomach by the following procedures. A part of left lateral lobe of liver was washed well with a cooled mincing buffer solution (Hanks' balanced salt solution containing 20 mmol/L EDTA and 10 vol % DMSO, pH7.5), and minced finely with dissecting scissors. This sample was kept on ice for 15 to 30 seconds, the precipitated large cell mass was removed, and the obtained cell suspension was kept on ice. Glandular stomach was added to a cooled mincing buffer solution, and kept on ice for 15 to 30 min. Then, the surface epithelium was removed by scraping gently twice, the stomach mucosa was washed well with a cooled mincing buffer solution, and the mucosa surface was taken out by scraping carefully four times or five times. This was kept on ice for 15 to 30 seconds, the precipitated large cell mass was removed, and the obtained cell suspension was kept on ice.
The liver and glandular stomach cell suspensions prepared by the above-mentioned procedures were added to 0.5 w/v % low-melting agarose so that the concentration became 10 vol % or less, 40 μL of the suspension was dropped to MAS-coated slide (Matsunami Glass Ind., Ltd.), and fixed to give a slide sample. The slide sample was immersed in a cooled cell lysate [an aqueous solution containing 2.5 mol/L sodium chloride, 100 mmol/L EDTA, 10 mmol/L tris(hydroxymethyl)aminomethane, 10 vol % DMSO and 1 vol % Triton X-100, pH 10.0], and kept overnight under light shielding in a refrigerator (2 to 8° C.).
The slide sample was washed with ultrapure water, set at random into an electrophoresis apparatus filled with an alkali buffer solution (an aqueous solution containing 0.3 mol/L sodium hydroxide and 1 mmol/L EDTA, pH >13) for electrophoresis. After confirming that the sample was completely immersed, the sample was left for 20 min to unwind the strands. Next, electrophorese was performed at a constant voltage of 0.7 to 1 V/cm (current is set about 0.30 A) for 20 min (the electrophoresis apparatus was kept on ice so that the alkali buffer solution for electrophoresis was kept at a constant temperature of 10° C. or below, during from the dissociation of the strands to electrophoresis). After electrophoresis, the slide sample was immersed in a neutralizing solution [0.4 mol/L aqueous tris(hydroxymethyl)aminomethane solution, pH 7.5] for 5 min or longer. Then, the slide sample was immersed in ethanol for 5 min or longer, and air-dried. […] The slide samples for negative control, test compound and positive control groups were encoded, and analyzed by the blind method. In each individual animal, 150 of suitable cells were selected for observation using a biological microscope with fluorescence attachment at 200-fold final magnification, and analyzed by image analysis software (Comet Assay IV, Perceptive Instruments Ltd.). The degree of the DNA damage was evaluated by % tail intensity calculated automatically from image analysis software. The median of the % tail intensity was calculated in each slide sample, and the average of the median was calculated in each individual. […]

DNA strand breakage in liver and glandular stomach cells [2]: not induced
Compound: O=C1c2cc(-c3nnc(C(F)F)o3)cnc2CN1[C@@H]1CCCC[C@H]1NC(=O)C(F)(F)C(F)(F)F [Example 489, N-((1R,2R)-2-(3-(5-(difluoromethyl)-1,3,4-oxadiazol-2-yl)-5-oxo-5,7-dihydro-6H-pyrrolo[3,4-b]pyridin-6-yl)cyclohexyl)-2,2,3,3,3-pentafluoropropanamide]
relative tubulin acetylation level (acetylated tubulin relative to total tubulin) [1]: increase in significant tubulin acetylation level was observed | genotoxic potential (judgement, micronucleus test and comet assay combined) (bone-marrow cells): negative | micronucleus formation in bone-marrow cell (bone-marrow cells): not induced
